| SMILES | melting point |
| --- | --- |
| CCC(Br)C(=O)c1ccc(NC(C)=O)cc1 (centres undefined) | 107 to 109 °C |
| O=C(O)CSc1nc(-c2cccnc2)no1 | 154 to 156 °C |
| Cc1nn(-c2ccccc2)c(N)c1SC#N | 108 to 110 °C |
| O=C1C=CC(=O)N1CCc1ccccc1F | 106 to 108 °C |
| CCn1c(=O)n(CC(=O)O)c2ccccc21 | 229 to 231 °C |
| Cc1c[nH]c(=O)n1-c1cccc(C#N)c1 | 189 to 191 °C |
| Cc1cc(NC(=O)C(C)Cl)on1 (centres undefined) | 78 to 80 °C |
| CCS(=O)(=O)NC1CCCNC1 (centres undefined) | 104 to 106 °C |
| O=C(O)CSc1cccc(C(F)(F)F)c1 | 19 to 21 °C |
| O=[N+]([O-])c1cc(Cc2ccccc2)ccc1O | 70 to 72 °C |
| CC(C)c1nccc(O)n1 | 239 to 241 °C |
| CC(=O)c1cc(Br)c(F)cc1O | 77 to 79 °C |
| Nc1nonc1-c1cccc(Br)c1 | 137 to 139 °C |
| CC(C(=O)O)N1C(=O)C2CC=CCC2C1=O (centres undefined) | 123 to 125 °C |
| COC(=O)CS(=O)c1ccc(Br)cc1 (centres undefined) | 84 to 86 °C |
| CC(Oc1ccc(Cl)cc1)C(=O)O (centres undefined) | 111 to 113 °C |
| O=C(O)CSCC(=O)N1CCCCC1 | 91 to 93 °C |
| Cc1ccc(SCCC(=O)NN)cc1 | 106 to 108 °C |
| O=c1[nH]c(Nc2ccccc2)cc2ccccc12 | 191 to 193 °C |
| CCN(CC(=O)O)S(=O)(=O)c1cccnc1Cl | 156 to 158 °C |
| O=C(O)Cc1ccon1 | 84 to 86 °C |
| O=C(CCl)c1c(-c2ccccc2)[nH]c2ccccc12 | 140 to 142 °C |
| c1cncc(NCc2ccsc2)c1 | 62 to 64 °C |
| Cc1ccc(S(N)(=O)=O)cc1C(=O)O | 175 to 190 °C |

| SMILES | melting point |
| --- | --- |
| O=C(O)CCC(=O)NCC(=O)c1ccccc1Cl | 151 to 153 °C |
| COC(=O)c1ccc2c(c1)CCCN2 | 71 to 73 °C |
| O=C(O)Cn1nc2n(c1=O)CCCCC2 | 229 to 231 °C |
| COC(=O)c1ccc([N+](=O)[O-])cc1N | 156 to 158 °C |
| COC(=O)c1cccc(-c2nc(C)cs2)c1 | 52 to 54 °C |
| O=C(CC(F)(F)F)c1ccc(Br)cc1 | 73 to 75 °C |
| O=C(Nc1cccc(Cl)c1N1CCOCC1)OCC(F)(F)F | 74 to 76 °C |
| Nc1ncn(-c2ccccn2)n1 | 174 to 176 °C |
| CCOC(=O)c1ccc(C(C)=O)cc1 | 55 to 57 °C |
| Cn1cc(C=O)c(-c2cccnc2)n1 | 86 to 88 °C |
| NC(=O)CC(NS(=O)(=O)c1ccccc1F)C(=O)O (centres undefined) | 165 to 167 °C |
| O=C(O)CCc1ccc(S(=O)(=O)N2CCCCCC2)cc1 | 122 to 124 °C |
| Cc1noc(C)c1COc1ccc(CC(=O)O)cc1 | 138 to 140 °C |
| ON=Cc1ccc(OCc2cccnc2)cc1 | 187 to 189 °C |
| NC(=O)c1ccc(N2CCCCC2)c(N)c1 | 168 to 170 °C |
| N#Cc1cnn(-c2ncccn2)c1N | 320 to 322 °C |
| OC1CCc2c(F)cccc21 (centres undefined) | 59 to 61 °C |
| Cc1cc2nnc(S)n2c(C)n1 | 250 to 252 °C |
| Nc1nc(-c2c[nH]c3ccccc23)cs1 | 167 to 169 °C |
| Clc1ccc(Cl)c(OCC2CO2)c1 (centres undefined) | 62 to 64 °C |
| NCc1ccc(NC(=O)C(F)(F)F)cc1 | 106 to 108 °C |
| O=C1CCc2c(F)cccc21 | 71 to 73 °C |
| CC(C)(C)c1ccc(C(=O)NC(=O)CCl)cc1 | 120 to 122 °C |
| CC(CCOc1ccccc1)C(=O)O (centres undefined) | 76 to 78 °C |

| SMILES | melting point |
| --- | --- |
| Clc1nc(-c2ccccn2)nc2sc(-c3ccccc3)cc12 | 186 to 188 °C |
| O=C(O)C1(S(=O)(=O)c2ccc(Cl)cc2)CCCC1 | 83 to 85 °C |
| NS(=O)(=O)c1ccc(-c2ccc(Br)cc2)cc1 | 207 to 209 °C |
| O=C(O)C1(c2cccc(Br)c2)CCOCC1 | 152 to 154 °C |
| Cc1cc(C)nc(-n2nccc2N)n1 | 183 to 185 °C |
| Cc1csc(C(O)C(F)(F)F)n1 (centres undefined) | 122 to 124 °C |
| Nc1cc(-c2ccc([N+](=O)[O-])cc2)no1 | 195 to 197 °C |
| Cc1cc(C)c(C(N)=O)c(N2CCCC2)n1 | 174 to 176 °C |
| Fc1ccc(-c2ccc(Cl)nn2)cc1 | 159 to 161 °C |
| Nc1cccn(Cc2ccc(F)cc2)c1=O | 110 to 112 °C |
| COC(=O)c1ccc(-c2nc(C3CC3)no2)cc1 | 100 to 102 °C |
| CCCCc1ccc(N2C(=O)C=CC2=O)cc1 | 40 to 44 °C |
| NS(=O)(=O)N1CCCc2ccccc21 | 125 to 127 °C |
| CCOc1ccc(Oc2ccc(S(=O)(=O)Cl)cc2)cc1 | 88 to 90 °C |
| Cc1ccc(N)c(C)c1O | 102 to 104 °C |
| CCOC(=O)c1nnn(-c2cccc([N+](=O)[O-])c2)c1N | 151 to 153 °C |
| N#Cc1cnc2ccc(OC(F)F)cc2c1Cl | 103 to 105 °C |
| CNC(=O)c1cncc(C=CC(=O)O)c1 | 253 to 255 °C |
| O=C(O)c1n[nH]c2c1CCCC2 | 249 to 251 °C |
| O=C(O)c1cnco1 | 226 to 230 °C |
| CC(C)Cc1nc(N)sc1C(=O)O | 149 to 151 °C |
| CCC(=O)c1c(C)nn(CCS(C)(=O)=O)c1C | 154 to 156 °C |
| Cc1sc2ncnc(Sc3ccccc3C(=O)O)c2c1C | 200 to 202 °C |
| N#Cc1ccccc1Oc1ccc(N)cn1 | 92 to 94 °C |

| SMILES | melting point |
| --- | --- |
| CC(C)NCc1nnc(-c2ccc([N+](=O)[O-])cc2)o1 | 175 to 182 °C |
| Cc1oc(C(N)=O)cc1-c1csc(N)n1 | 224 to 226 °C |
| COc1cc(C=O)ccc1OC(=O)c1cccs1 | 64 to 69 °C |
| O=C(O)c1cc(S(=O)(=O)Cl)c(F)cc1Cl | 144 to 146 °C |
| COc1cc(C(C)=O)ccc1SC | 92 to 94 °C |
| COC(=O)N1CCc2n[nH]c(=O)cc2C1 | 189 to 191 °C |
| COc1ccc(S(=O)(=O)Cl)c([N+](=O)[O-])c1 | 75 to 79 °C |
| OC(c1ccccc1)C1CCCCN1 (centres undefined) | 136 to 138 °C |
| Cc1c(C(=O)O)cccc1S(N)(=O)=O | 218 to 220 °C |
| COc1ccc2c(C)cc(NN)nc2c1 | 250 to 252 °C |
| O=C(O)c1cccc(S(=O)(=O)Nc2ccc3c(c2)OCO3)c1 | 249 to 251 °C |
| Cc1sc2nc(S)[nH]c(=O)c2c1C | 328 to 330 °C |
| Nc1sc2c(c1C(=O)c1ccccc1)CCCC2 | 123 to 127 °C |
| O=C(CC(F)(F)F)c1ccc(F)cc1 | 29 to 31 °C |
| C#CCNC(=O)C(C)Cl (centres undefined) | 61 to 63 °C |
| CCC(=O)Nc1cccc(C(=O)O)c1 | 229 to 231 °C |
| COc1cccc(CC2(C(=O)O)CC3CCC2C3)c1 (centres undefined) | 67 to 69 °C |
| OCCOc1cncc(Br)c1 | 51 to 53 °C |
| N#Cc1cc2ccccc2nc1Br | 179 to 181 °C |
| Cc1ccc(-c2csc(N)n2)s1 | 129 to 131 °C |
| Cc1ccccc1-c1cnc(N)s1 | 119 to 121 °C |
| NNC(=O)N1CCSCC1 | 129 to 131 °C |
| CC(C)Cn1c(S)nc2scc(-c3cccs3)c2c1=O | 236 to 238 °C |
| O=C1NC(=O)C(CCSSCCC2NC(=O)NC2=O)N1 (centres undefined) | 236 to 238 °C |

| SMILES | melting point |
| --- | --- |
| O=C1CC2(CCCC2)CN1 | 68 to 70 °C |
| CSCCC(NC(N)=O)C(=O)O (centres undefined) | 141 to 143 °C |
| O=C(CCl)N(Cc1cccs1)C1CCS(=O)(=O)C1 (centres undefined) | < 17 °C |
| CCOc1ccc(-c2csc(N)n2)cc1 | 248 to 250 °C |
| CCOC(=O)c1ccc(NCC2CC2)cc1 | 69 to 71 °C |
| Cc1ccsc1C(=O)Nc1ccc(O)cc1 | 127 to 129 °C |
| Fc1ccc(-c2cnc(CBr)o2)cc1 | 30 to 41 °C |
| ClCc1csc(-c2ncccn2)n1 | 147 to 149 °C |
| Cc1c(CCC(=O)O)c(=O)[nH]c2c1c(=O)[nH]n2C | 304 to 306 °C |
| Cc1cc2ccccc2c(=O)[nH]1 | 199 to 201 °C |
| CCn1nc(C(F)(F)F)c(C(=O)O)c1C(F)(F)F | 89 to 91 °C |
| COc1ccc(S(=O)(=O)NC(C)(C)C)c(CC(=O)O)c1 | 198 to 200 °C |
| CS(=O)(=O)c1nc(C(=O)O)c2ccccn12 | 259 to 261 °C |
| CC(O)c1cnc(-c2ccc(Br)cc2)s1 (centres undefined) | 77 to 79 °C |
| CC(C)(C)NC(=O)CCl | 75 to 77 °C |
| O=C(O)c1ccc(Cl)c(N2CCCC2=O)c1 | 288 to 290 °C |
| CC(C(=O)O)C(NC(=O)OC(C)(C)C)c1ccccc1 (centres undefined) | 71 to 73 °C |
| COc1cc(C(=O)O)ccc1OCC(C)C | 145 to 147 °C |
| Nc1ccccc1NC12CC3CC(CC(C3)C1)C2 | 92 to 94 °C |
| O=C(O)CCSc1ccccc1Br | 104 to 106 °C |
| Cc1sc2nc(CCl)nc(Cl)c2c1C | 142 to 144 °C |
| O=C(O)c1ccc(/C=C/c2ccc3ccccc3n2)cc1 | 263 to 265 °C |
| COc1ccc(F)cc1C(C)N (centres undefined) | 74 to 76 °C |
| O=C(CCl)NC(=O)NCc1ccco1 | 128 to 130 °C |

| SMILES | melting point |
| --- | --- |
| CN(C)CCn1nnnc1S | 213 to 215 °C |
| ClCc1cc2c(cc1Br)OCO2 | 62 to 66 °C |
| CN1N=C(C(N)=O)CCC1=O | 169 to 171 °C |
| CCN1CCN(C(=O)c2ccc(N)cc2)CC1 | 125 to 127 °C |
| O=S(=O)(Cl)c1ccc2c(c1)S(=O)(=O)CC2 | 128 to 130 °C |
| NCC(Cc1ccc(F)cc1)C(N)=O (centres undefined) | 119 to 121 °C |
| Cc1ccc(-c2cnnc(N)n2)cc1 | 277 to 279 °C |
| CN(C)C(=O)c1csc(C(=O)CCl)c1 | 142 to 144 °C |
| O=C(CO)Nc1ccccc1 | 79 to 81 °C |
| Clc1ccc(Cn2cc(Br)cn2)cc1 | 71 to 73 °C |
| COc1cc2nc(-c3ccccc3)nc(Cl)c2cc1OC | 132 to 134 °C |
| Cc1ncc(C(=O)O)c(C)n1 | 151 to 153 °C |
| O=C(O)c1cc2cccc(F)c2o1 | 242 to 244 °C |
| CC(C)c1noc2nc(C3CC3)cc(C(=O)O)c12 | 178 to 180 °C |
| OCc1c(Cl)ccc2cccnc12 | 93 to 95 °C |
| CC(C)c1oc(-c2ccccc2)nc1C(=O)O | 153 to 155 °C |
| CN(C)C1=CC(=C(N)N=O)C=CN1 | 129 to 131 °C |
| N#Cc1cc(C(F)(F)F)ccc1N | 72 to 74 °C |
| O=Cc1cnc(-c2ccc(Cl)cc2)nc1 | 183 to 185 °C |
| Cc1sc2ncn(CC(=O)O)c(=O)c2c1C | 229 to 231 °C |
| Cc1ccc(-c2noc(N)n2)cc1 | 214 to 216 °C |
| O=[N+]([O-])c1ccc(NCc2ccccn2)cc1 | 119 to 121 °C |
| NNC(=O)Cc1ccccn1 | 111 to 113 °C |
| NC(=O)CSc1ccccc1N | 113 to 115 °C |
